Experimental data: the supplement of paper PMC10307832

How the values were obtained:
Assay in all cases: relative viability (nuclei count vs DMSO), 5 days (fraction); higher = more cells survive
[1] = compound: Cc1cnc(Nc2ccc(OCCN3CCCC3)cc2)nc1Nc1cccc(S(=O)(=O)NC(C)(C)C)c1 [Fedratinib] + C[C@]1(O)C[C@@H](c2nc(-c3ccc4ccc(-c5ccccc5)nc4c3)c3c(N)nccn32)C1 [Linsitinib] (partner 1 µM)
Procedure, shortened: (§1)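 One day after seeding in 1536-well plates, lung cancer cell lines were dosed by pin tool. Dosing was either single-drug or a fixed anchor-drug dose plus five library-drug doses (not always all listed) in √10 steps. After 5 days, nuclei were stained in one fix-and-stain step and counted on 4× images, and relative viability is the nuclei count of treated wells over that of vehicle wells, given as the median of duplicate plates.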

[2] = compound: Cc1cnc(Nc2ccc(OCCN3CCCC3)cc2)nc1Nc1cccc(S(=O)(=O)NC(C)(C)C)c1 [Fedratinib] + Cc1nc(NC(=O)N2CCC[C@H]2C(N)=O)sc1-c1ccnc(C(C)(C)C(F)(F)F)c1 [Alpelisib] (partner 2 µM)
Procedure, shortened: as §1

[3] = compound: COC1=CC=C(C=C1)COC2=C(C=C(C=C2)CC3=CN=C(N=C3N)N)OC [GW-2580] + Nc1ncn([C@H]2C[C@H](O)[C@@H](CO)O2)c(=O)n1 [Decitabine] (partner 2 µM)
Procedure, shortened: as §1

[4] = compound: COC1=CC=C(C=C1)COC2=C(C=C(C=C2)CC3=CN=C(N=C3N)N)OC [GW-2580] + C[C@]1(O)C[C@@H](c2nc(-c3ccc4ccc(-c5ccccc5)nc4c3)c3c(N)nccn32)C1 [Linsitinib] (partner 1 µM)
Procedure, shortened: as §1

[5] = compound: COC1=CC=C(C=C1)COC2=C(C=C(C=C2)CC3=CN=C(N=C3N)N)OC [GW-2580]
Procedure, shortened: (§2)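 After an overnight hold at 37 °C, lung cancer cell lines in 1536-well plates were pinned with five library-drug doses (not always all listed), each √10 from the next, on vehicle-anchored plates. The cells stayed 5 days without fresh medium, then a one-step fix, permeabilisation and Hoechst stain preceded 4× imaging and MetaXpress nuclear counts. A plate passed only with control CV under 25% and at least one doubling. Viability is the median, over plates, of treated-well nuclei relative to vehicle-well nuclei.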

[6] = compound: Cc1cnc(Nc2ccc(OCCN3CCCC3)cc2)nc1Nc1cccc(S(=O)(=O)NC(C)(C)C)c1 [Fedratinib]
Procedure, shortened: as §2

For UMC-11, the relative viability ([1]; first compound 0.1 µM) was 0.995, the relative viability ([1]; first compound 0.3162 µM) was 0.864 and the relative viability ([1]; first compound 1 µM) was 0.848. For the same cell line, the relative viability ([2]; first compound 0.1 µM) was 0.985, the relative viability ([2]; first compound 0.3162 µM) was 0.876 and the relative viability ([2]; first compound 1 µM) was 0.95. It also gave a relative viability ([3]; first compound 0.08 µM) of 0.617, a relative viability ([3]; first compound 0.8 µM) of 0.424 and a relative viability ([3]; first compound 8 µM) of 0.586. For the same cell line, the relative viability ([4]; first compound 0.08 µM) was 1.02, the relative viability ([4]; first compound 0.8 µM) was 1.15 and the relative viability ([4]; first compound 2.53 µM) was 0.998. The relative viability ([4]; first compound 8 µM) was 1.02, the relative viability ([5]; 0.08 µM) was 1.05 and the relative viability ([5]; 0.8 µM) was 1.11. It also gave a relative viability ([5]; 2.53 µM) of 0.923, a relative viability ([5]; 8 µM) of 1.2 and a relative viability ([6]; 0.1 µM) of 0.914. It also gave a relative viability ([6]; 0.3162 µM) of 0.894 and a relative viability ([6]; 1 µM) of 0.67.
